Test results as given in patent US20120165403A1, “METHODS OF INHIBITING THE ACTIVITY OF HSP90 AND/OR ARYL HYDROCARBON RECEPTOR” (UNIVERSITY OF ROCHESTER, priority 2004, published 2012).

Key:
mouse AhR = test: Competitive binding by velocity sedimentation on sucrose density gradients; details: Hepa cytosol, 2 h, room temperature
Procedure: Mouse hepatoma cells, Hepa1c1c7 (Hepa), and BP^rCl cells were maintained in modified Eagle's medium (Sigma) supplemented with 10% heat-inactivated fetal bovine serum, sodium pyruvate, L-glutamine, sodium bicarbonate, and Gentamicin (MEM+), at 37° C. in a humid atmosphere with 5% CO2. BP^rCl cells are a derivative of Hepa1c1c7 cells that lack ARNT protein expression and function (Probst et al., Mol. Pharmacol. 44:511-518 (1993), which is hereby incorporated by reference in its entirety). Upon reaching 90% confluency, cells were harvested and homogenized in HEDG buffer (25 mM HEPES, 1.5 mM Na2EDTA, 1 mM dithiothreitol, 10% (v/v) glycerol, pH 7.6) containing protease inhibitors (Roche Applied Science complete mini cocktail tablet, Indianapolis, Ind.). Both Hepa and BP^rC1 cytosols were prepared by centrifugation of the homogenate at 100,000 g for 45 min.
(§1) Competitive binding of EGCG was analyzed by velocity sedimentation on sucrose gradients in a vertical tube rotor (Tsui et al., Can. J. Physiol. Pharmacol 59:927-931 (1981); Jensen et al., Toxicol. Sci. 64:41-56 (2001), which are hereby incorporated by reference in their entirety). Hepa cytosol (100 μl of 2.5 mg/ml) or BP^rCl cytosol was incubated for two hours at room temperature with either 3 nM ^3H-TCDD, 0.5 nM ^3H-TCDD, or 5 nM ^3H-BNF, in the presence of DMSO, 150-fold excess TCDF, 1 μM 3M4NF, or EGCG. Cytosols were washed with charcoal-dextran (1 mg charcoal/mg protein) in HEDG, and applied to a 10-30% (w/v) sucrose gradient in Beckman Quick-Seal centrifuge tubes (Beckman, Palo Alto, Calif.). [Methyl-^14C]-BSA was used as an internal sedimentation marker. The gradients were centrifuged for 2 h at 372,000×g in a Beckman VTI-80 rotor. Fractions were collected from the top at a rate of 1 ml/min, 0.2 ml/fraction. For competitive binding assays, fractions were assayed for radioactivity with ScintiVerse (Fisher Scientific, Fair Lawn, N.J.). […] For AhR and hsp90 density analysis, protein contained within an aliquot (200 of each fraction was separated by SDS-PAGE (7.5% acrylamide resolving gel) and transferred to PVDF membranes. Membranes were probed with antibodies recognizing AhR (Biomol) or hsp90 (Stressgen, Victoria, BC Canada). A crude estimate of the sedimentation coefficient for the EGCG shifted AhR complex was calculated by the method of Martin and Ames (Martin et al., J. Biol. Chem. 236:1372-1379 (1961), which is hereby incorporated by reference in its entirety) relative to the ^14C-BSA (4.4S) standard.

AhR [1] = test: AhR protein levels by western blotting in Hepa cells; format: cell-based, mouse; details: over 12 hours, EGCG 200 μM or TCDD 150 pM
Procedure: Hepa cells were plated onto 6-well plates at a density of 5×10^5 cells/well and incubated overnight at 37° C. […] Cells were lysed (0.2% Triton, 5 mM EDTA in PBS) and total protein quantified using the Coomassie Plus Protein Assay Reagent (Pierce, Rockford, Ill.). Protein (30 μg) was separated by SDS-PAGE (7.5% acrylamide resolving gel) and transferred to PVDF membrane (Millipore, Bedford, Mass.). Membranes were probed with antibodies recognizing CYP1A1 (Xenotech, Lenexa, Kans.), AhR (Biomol, Plymouth Meeting, Pa.) and actin (Sigma). The secondary IgG antibodies were coupled to horseradish peroxidase (Jackson Immuno Research, West Grove, Pa.). Both primary and secondary antibodies were used at a dilution of 1:5000 in TBST (50 mM Tris, 300 mM NaCl, 0.5% Tween 20, pH 7.5) containing 5% milk. Proteins were visualized by chemiluminescence (KPL, Gaithersburg, Md.).

hsp90 = test: Sucrose density gradient sedimentation of hsp90 in Hepa cytosol; format: biochemical, mouse; details: 2 h, 200 μM EGCG or 10 nM TCDD
Procedure: as §1, with “Cytosols were washed with charcoal-dextran (1 mg charcoal/mg protein) in HEDG, and applied to a 10-30% (w/v) sucrose gradient in Beckman Quick-Seal centrifuge tubes (Beckman, Palo Alto, Calif.). [Methyl-^14C]-BSA was used as an internal sedimentation marker. The gradients were centrifuged for 2 h at 372,000×g in a Beckman VTI-80 rotor. Fractions were collected from the top at a rate of 1 ml/min, 0.2 ml/fraction.” left out

AhR [2] = test: Immunocytochemistry of AhR subcellular localization in Hepa cells; format: cell-based, mouse; details: 1 h, EGCG 200 μM or TCDD 150 pM
Procedure: Hepa cells were plated onto four-well chamber slides (Becton Dickinson, Bedford, Mass.) at a density of 2.0×10^4 and incubated overnight. Cells were treated with either vehicle (DMSO), TCDD (150 pM), EGCG alone (200 μM), or EGCG in the presence of TCDD (150 pM) for 1 h. Cells were fixed with 3.7% formalin at room temperature for 10 minutes, followed by a four minute incubation in anhydrous methanol at 4° C. All antibodies were filtered through a 0.45 micron filter before staining Cells were blocked for one hour in phosphate buffered saline containing 4% BSA, incubated with anti-AhR at a 1:2000 dilution for two hours at room temperature, followed by a one hour incubation with 1:1000 anti-rabbit Alexa-Fluor conjugated secondary antibody (Molecular Probes, Eugene Oreg.). Nuclei were stained with DAPI (0.5 μg/ml) (Molecular Probes) for three minutes at room temperature. Slides were mounted with 50% glycerol and coverslipped. AhR staining and nuclear staining were visualized using a Nikon Eclipse TS110 fluorescent microscope (40× magnification). Fluorescent images were captured using SPOT advanced software.

## COc1cc(-c2cc(=O)c3ccccc3o2)ccc1[N+](=O)[O-] [3M4NF, 3′-methoxy-4′ nitroflavone, reference compound]
Mouse AhR; 3 nM 3H-TCDD
  competition with 3H-TCDD for specific binding to the AhR (9S peak): inhibited the formation of this ^3H-TCDD peak

## O=c1cc(-c2cccc([N+](=O)[O-])c2)oc2ccccc12 [3′-nitroflavone, reference compound]
Mouse AhR; 5 nM 3H-BNF
  competition with 3H-BNF for binding to the AhR: very efficiently competed with BNF binding

## Clc1cc2c(cc1Cl)Oc1cc(Cl)c(Cl)cc1O2 [TCDD, 2,3,7,8-tetrachlorodibenzo-p-dioxin, reference compound]
AhR [1]
  AhR protein levels, treatment alone: decline rapidly
hsp90
  effect on the sedimentation pattern of hsp90: did not appear to influence this sedimentation pattern
AhR [2]
  subcellular localization of the AhR, treatment alone: redistribution of the AhR from the cytosol to the nucleus
